Measurements: patent US20070105820A1 (priority 2005, published 2007)

How the values were obtained:
[1] = test system: peripheral nerve injury; conditions: intravenous; concentrations that do not affect general behaviour and motor function; cited from earlier work
[2] = test system: Nav1.4 and 1.5; format: cell-based, rat
[3] = target: Nav1.2 (Rattus norvegicus, UniProt P04775)
[4] = target: NaV1.8 (Homo sapiens, UniProt Q9Y5Y9); format: cell-based
[5] = test system: Nav1.4; format: cell-based, Chinese Hamster

NaV1.8, sequence (Q9Y5Y9 whole entry, looked up): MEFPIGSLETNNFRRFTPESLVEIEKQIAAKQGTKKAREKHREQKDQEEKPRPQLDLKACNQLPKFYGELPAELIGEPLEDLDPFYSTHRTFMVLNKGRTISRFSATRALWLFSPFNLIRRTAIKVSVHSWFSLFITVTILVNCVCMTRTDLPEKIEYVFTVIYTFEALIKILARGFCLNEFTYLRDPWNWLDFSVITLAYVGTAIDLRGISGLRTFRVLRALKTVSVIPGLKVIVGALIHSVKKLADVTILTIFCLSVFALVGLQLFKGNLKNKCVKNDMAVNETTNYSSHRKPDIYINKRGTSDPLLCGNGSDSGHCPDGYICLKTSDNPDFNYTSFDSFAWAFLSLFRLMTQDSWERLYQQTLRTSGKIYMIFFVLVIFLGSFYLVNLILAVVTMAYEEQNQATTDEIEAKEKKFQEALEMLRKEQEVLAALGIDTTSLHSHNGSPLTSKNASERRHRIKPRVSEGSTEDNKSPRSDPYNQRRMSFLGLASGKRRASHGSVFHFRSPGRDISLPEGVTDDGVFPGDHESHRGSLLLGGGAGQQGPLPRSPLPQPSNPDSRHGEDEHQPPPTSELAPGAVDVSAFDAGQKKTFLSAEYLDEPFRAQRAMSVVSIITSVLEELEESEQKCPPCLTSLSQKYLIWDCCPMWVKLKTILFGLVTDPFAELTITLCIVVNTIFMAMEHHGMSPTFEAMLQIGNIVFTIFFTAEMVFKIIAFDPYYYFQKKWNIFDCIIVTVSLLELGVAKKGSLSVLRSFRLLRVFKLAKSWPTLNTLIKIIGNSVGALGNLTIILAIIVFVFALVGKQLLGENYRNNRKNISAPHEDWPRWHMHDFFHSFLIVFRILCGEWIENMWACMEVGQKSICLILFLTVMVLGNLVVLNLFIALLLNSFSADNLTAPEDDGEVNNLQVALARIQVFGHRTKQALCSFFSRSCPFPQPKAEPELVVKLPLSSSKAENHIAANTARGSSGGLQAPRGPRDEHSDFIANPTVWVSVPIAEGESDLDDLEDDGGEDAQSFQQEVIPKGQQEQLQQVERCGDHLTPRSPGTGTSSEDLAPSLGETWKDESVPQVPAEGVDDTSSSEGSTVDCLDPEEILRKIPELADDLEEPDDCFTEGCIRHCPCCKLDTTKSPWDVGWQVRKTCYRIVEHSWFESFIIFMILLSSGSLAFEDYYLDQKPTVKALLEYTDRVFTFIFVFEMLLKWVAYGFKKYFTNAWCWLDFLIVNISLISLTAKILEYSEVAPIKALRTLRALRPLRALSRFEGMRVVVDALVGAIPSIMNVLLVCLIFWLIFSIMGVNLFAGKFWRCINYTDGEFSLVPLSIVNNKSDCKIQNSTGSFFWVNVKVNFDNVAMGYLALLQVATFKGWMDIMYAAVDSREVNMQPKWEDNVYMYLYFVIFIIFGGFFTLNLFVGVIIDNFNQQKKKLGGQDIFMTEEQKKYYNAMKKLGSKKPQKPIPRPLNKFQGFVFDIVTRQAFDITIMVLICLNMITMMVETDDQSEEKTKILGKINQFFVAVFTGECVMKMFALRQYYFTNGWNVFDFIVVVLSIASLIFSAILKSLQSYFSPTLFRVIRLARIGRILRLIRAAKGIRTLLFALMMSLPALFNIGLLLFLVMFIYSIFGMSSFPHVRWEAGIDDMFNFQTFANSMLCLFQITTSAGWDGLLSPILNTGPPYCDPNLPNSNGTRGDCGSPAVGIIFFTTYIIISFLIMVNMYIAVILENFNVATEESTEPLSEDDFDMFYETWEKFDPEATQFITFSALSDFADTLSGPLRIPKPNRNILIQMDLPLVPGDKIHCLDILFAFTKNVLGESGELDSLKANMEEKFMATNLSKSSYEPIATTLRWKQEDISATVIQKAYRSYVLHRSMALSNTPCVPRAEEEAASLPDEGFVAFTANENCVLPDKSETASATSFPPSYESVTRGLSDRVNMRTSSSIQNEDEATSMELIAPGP
Nav1.2, sequence (P04775 whole entry, looked up): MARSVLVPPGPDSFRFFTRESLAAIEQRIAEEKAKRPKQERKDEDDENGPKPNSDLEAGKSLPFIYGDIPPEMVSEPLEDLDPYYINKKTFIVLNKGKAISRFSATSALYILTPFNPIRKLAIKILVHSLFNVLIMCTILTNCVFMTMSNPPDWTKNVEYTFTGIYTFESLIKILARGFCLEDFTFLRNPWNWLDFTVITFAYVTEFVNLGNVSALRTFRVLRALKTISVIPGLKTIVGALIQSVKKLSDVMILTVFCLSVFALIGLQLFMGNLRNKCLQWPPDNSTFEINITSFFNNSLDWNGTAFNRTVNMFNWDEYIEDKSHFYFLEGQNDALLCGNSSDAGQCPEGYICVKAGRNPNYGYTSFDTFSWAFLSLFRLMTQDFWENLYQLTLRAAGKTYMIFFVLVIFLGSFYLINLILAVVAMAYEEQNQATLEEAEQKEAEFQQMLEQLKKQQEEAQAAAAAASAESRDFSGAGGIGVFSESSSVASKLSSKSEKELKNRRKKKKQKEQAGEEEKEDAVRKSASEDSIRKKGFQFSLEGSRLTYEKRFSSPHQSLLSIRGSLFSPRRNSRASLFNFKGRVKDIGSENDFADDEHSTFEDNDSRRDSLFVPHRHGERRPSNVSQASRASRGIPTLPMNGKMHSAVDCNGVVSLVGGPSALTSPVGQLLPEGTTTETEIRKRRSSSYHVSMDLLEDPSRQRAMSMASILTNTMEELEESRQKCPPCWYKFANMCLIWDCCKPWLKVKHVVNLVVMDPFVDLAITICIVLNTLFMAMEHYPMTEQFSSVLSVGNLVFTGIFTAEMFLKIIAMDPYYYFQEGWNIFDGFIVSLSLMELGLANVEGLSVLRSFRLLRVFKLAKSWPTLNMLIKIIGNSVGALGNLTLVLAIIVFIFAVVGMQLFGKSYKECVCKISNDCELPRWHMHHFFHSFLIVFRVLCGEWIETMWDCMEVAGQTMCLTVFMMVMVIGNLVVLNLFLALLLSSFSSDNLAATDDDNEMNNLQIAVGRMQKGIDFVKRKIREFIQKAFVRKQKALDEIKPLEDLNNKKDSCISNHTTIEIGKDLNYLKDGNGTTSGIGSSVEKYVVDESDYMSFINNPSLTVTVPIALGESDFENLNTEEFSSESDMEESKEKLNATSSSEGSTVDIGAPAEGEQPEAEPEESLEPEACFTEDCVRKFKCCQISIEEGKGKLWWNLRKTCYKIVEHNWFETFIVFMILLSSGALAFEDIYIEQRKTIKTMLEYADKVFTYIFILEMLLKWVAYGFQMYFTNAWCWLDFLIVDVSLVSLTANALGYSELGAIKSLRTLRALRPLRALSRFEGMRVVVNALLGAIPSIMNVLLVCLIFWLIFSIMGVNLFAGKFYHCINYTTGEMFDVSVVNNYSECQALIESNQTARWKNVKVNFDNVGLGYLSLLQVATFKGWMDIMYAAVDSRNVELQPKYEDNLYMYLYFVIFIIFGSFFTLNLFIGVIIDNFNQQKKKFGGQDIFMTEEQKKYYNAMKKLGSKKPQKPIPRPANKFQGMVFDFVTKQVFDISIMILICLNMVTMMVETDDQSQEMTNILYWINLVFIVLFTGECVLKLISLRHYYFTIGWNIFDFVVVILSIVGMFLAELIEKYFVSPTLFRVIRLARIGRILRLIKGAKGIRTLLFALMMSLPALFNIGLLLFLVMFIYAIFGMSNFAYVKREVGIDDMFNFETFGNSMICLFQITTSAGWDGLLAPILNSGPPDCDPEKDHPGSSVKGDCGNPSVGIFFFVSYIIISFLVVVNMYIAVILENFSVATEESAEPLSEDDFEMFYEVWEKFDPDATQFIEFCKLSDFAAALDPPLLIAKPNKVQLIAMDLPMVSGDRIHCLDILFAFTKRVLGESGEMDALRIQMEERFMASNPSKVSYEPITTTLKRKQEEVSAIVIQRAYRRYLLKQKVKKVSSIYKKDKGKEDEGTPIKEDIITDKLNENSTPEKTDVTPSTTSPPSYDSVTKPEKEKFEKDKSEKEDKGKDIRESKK

SMILES | melting point | also measured
O=C(CC1(O)C(=O)N(Cc2ccc(Cl)cc2)c2ccccc21)c1ccc[nH]1 (centres unmarked) | 202 °C (dec.) | –
CCCCCN1C(=O)C(O)(c2ccc3c(c2)OCO3)c2cc(C)cc(C)c21 (centres unmarked) | 120 to 121 °C | –
O=C1N(Cc2ccc(Cl)cc2)c2ccccc2C1(O)c1ccc2ncsc2c1 (centres unmarked) | 185 to 187 °C | –
CCCCCN1C(=O)C(O)(c2ccc3c(c2)OCO3)c2c(Cl)cccc21 (centres unmarked) | 140 to 142 °C | –
O=C(CC1(O)C(=O)N(Cc2ccc3c(c2)OCO3)c2ccccc21)c1ccco1 (centres unmarked) | 175 to 177 °C | –
CCN(CC)CC(=O)Nc1c(C)cccc1C [lidocaine] | – | effect on ectopic activity in the injured nerve [1]: suppress the ectopic activity; effect on tactile allodynia [1]: reverse the tactile allodynia
O=C(c1ccc(Cl)cc1)N1C(=O)C(O)(c2ccccc2)c2ccccc21 (centres unmarked) | 141 to 143 °C | –
CCCCCN1C(=O)C(O)(c2ccc3c(c2)OCO3)c2cccc(C(F)(F)F)c21 (centres unmarked) | 115 to 117 °C | –
O=C(CC1(O)C(=O)N(CCc2ccc(Cl)cc2)c2ccccc21)c1ccco1 (centres unmarked) | 128 to 132 °C | –
CCCCCN1C(=O)C(O)(c2cc3c(cc2CO)OCO3)c2ccccc21 (centres unmarked) | 120 to 122 °C | –
CCCCCN1C(=O)C(O)(c2ccc3ocnc3c2)c2ccccc21 (centres unmarked) | 189 to 191 °C | –
O=C1c2ccccc2CC1C1(O)C(=O)N(Cc2ccc(Cl)cc2)c2ccccc21 (centres unmarked) | 154 to 157 °C | –
CCCCCN1C(=O)C(c2cc3c(cc2O)OCO3)c2ccccc21 (centres unmarked) | 101 to 103 °C | –
O=C1N(Cc2cc3c(cc2Cl)OCO3)c2ccccc2C1(O)c1ccc2c(c1)OCO2 (centres unmarked) | 153 to 155 °C | –
CC(c1ccccc1)N1C(=O)C(O)(c2ccc3c(c2)OCO3)c2ccccc21 (centres unmarked) | 148 to 150 °C | –
O=C(CC1(O)C(=O)N(Cc2ccc3c(c2)OCO3)c2ccccc21)c1cccs1 (centres unmarked) | 186 to 187 °C | –
O=C(CC1(O)C(=O)N(c2ccc(F)cc2)c2ccccc21)c1ccco1 (centres unmarked) | 185 °C (dec.) | –
CCCCCN1C(=O)C(O)(c2ccc3c(c2)OCO3)c2cccc(F)c21 (centres unmarked) | 102 to 104 °C | –
O=C1N(Cc2ccc(Cl)cc2)c2ccccc2C1(O)c1ccc2ccoc2c1 (centres unmarked) | > 200 °C (dec.) | –
O=C1N(Cc2ccc(Cl)c(C(F)(F)F)c2)c2ccccc2C1(O)c1ccc2c(c1)OCO2 (centres unmarked) | 133 to 135 °C | –
NC1=N[C@H](O)[C@H]2[C@H]3O[C@]4(O)O[C@@H]([C@@H](O)[C@@]2(N1)[C@@H]4O)[C@]3(O)CO [TTX, tetrodotoxin] | – | block of [14C] Guanidine influx by TTX [2]: partially blocked by TTX (Nav1.5; block of [14C] Guanidine influx by TTX [3]: Guanidine influx was completely; block of [14C] Guanidine influx by TTX [4]: TTX partially blocked influx; block of [14C] Guanidine influx by TTX [5]: Guanidine influx was completely
O=C1N(Cc2ccc(Cl)cc2)c2ccccc2C1(O)c1cncnc1 (centres unmarked) | 155 to 157 °C | –
O=C1N(Cc2ccc3c(c2)OCO3)c2ccccc2C1(O)c1ccc2ccoc2c1 (centres unmarked) | > 200 °C | –
O=C1N(Cc2ccc(Cl)cc2)c2ccccc2C1(O)c1ccc2c(c1)OC(F)(F)O2 (centres unmarked) | 150 to 152 °C | –

SMILES | melting point | also measured
COc1ccc2c(c1)C(O)(c1ccc3c(c1)OCO3)C(=O)N2Cc1ccc(F)cc1 (centres unmarked) | 127 to 129 °C | –
O=C1C(c2ccc3c(c2)OCO3)c2ccccc2N1Cc1ccc(Cl)cc1 (centres unmarked) | 161 to 163 °C | –
COc1ccc(C2(O)C(=O)N(Cc3ccc(Cl)cc3)c3ccccc32)cn1 (centres unmarked) | 182 to 184 °C | –
O=C1N(Cc2ccccn2)c2cccc(Br)c2C1(O)c1cc2c(cc1O)OCC2 (centres unmarked) | > 225 °C | –
CCCCCN1C(=O)C(NC(=O)OC(C)(C)C)c2ccccc21 (centres unmarked) | 145 to 147 °C | –
O=C1N(Cc2ccc(Cl)cc2)c2ccc(OC(F)(F)F)cc2C1(O)c1ccc2c(c1)OCO2 (centres unmarked) | 138 to 140 °C | –
O=C1N(Cc2ccc(Cl)cc2)c2ccccc2C1(O)C#Cc1ccc(F)cc1 (centres unmarked) | 153 to 154 °C | –
O=C1N(CC2CC2)c2ccccc2C1(O)c1ccc2c(c1)OCO2 (centres unmarked) | 142 to 145 °C | –
O=C1N(Cc2ccc(Cl)cc2)c2ccccc2C1(O)c1ccc2c(c1)OCCCO2 (centres unmarked) | 188 to 190 °C | –
O=C1N(Cc2ccc(Cl)cc2)c2ccccc2C1(O)c1cc(OCc2ccccc2)ccc1O (centres unmarked) | 172 to 175 °C | –
O=C1N(Cc2cccc3ccccc23)c2ccccc2C1(O)c1ccc2c(c1)OCO2 (centres unmarked) | 93 to 95 °C | –
O=C1C(c2ccc3c(c2)OCO3)c2ccccc2N1CCC1CC1 (centres unmarked) | 87 to 89 °C | –
CCCCCN1C(=O)C(CO)(c2cc3c(cc2O)OCO3)c2ccccc21 (centres unmarked) | 125 to 127 °C | –
O=C(CC1(O)C(=O)N(Cc2ccc(Cl)cc2)c2ccccc21)c1ccccn1 (centres unmarked) | 185 °C (dec.) | –
CCCCCN1C(=O)C(O)(c2ccc3c(c2)OCO3)c2c(Cl)ccc(Cl)c21 (centres unmarked) | 82 to 84 °C | –
CCCCCC1(O)C(=O)N(c2ccc3c(c2)OCO3)c2ccccc21 (centres unmarked) | 88 to 90 °C | –
O=C1Nc2c(-c3ccc4c(c3)OCO4)cccc2C1(O)c1ccc2c(c1)OCO2 (centres unmarked) | 112 to 115 °C | –
O=C1N(Cc2ccc(-n3cccc3)cc2)c2ccccc2C1(O)c1ccc2c(c1)OCO2 (centres unmarked) | 195 to 198 °C | –
O=C1N(Cc2cccc3cccnc23)c2ccccc2C1(O)c1ccc2c(c1)OCO2 (centres unmarked) | 187 to 189 °C | –
O=C1N(CCC2CC2)c2ccccc2C1(O)c1ccc2c(c1)OCO2 (centres unmarked) | 110 to 112 °C | –
COc1ccc(C2(O)C(=O)N(Cc3ccc(Cl)cc3)c3ccccc32)cc1OC (centres unmarked) | 155 to 158 °C | –
O=C1N(CCCCCCl)c2ccccc2C1(O)c1ccc2c(c1)OCO2 (centres unmarked) | 131 to 132 °C | –
O=C1N(Cc2ccc(Cl)s2)c2ccccc2C1(O)c1ccc2c(c1)OCO2 (centres unmarked) | 164 to 165 °C | –
CCCCCN1C(=O)C(c2ccc3c(c2)OCO3)c2cccc(F)c21 (centres unmarked) | 95 to 97 °C | –

SMILES | melting point | also measured
Cc1ccc2c(c1)C(O)(CC(=O)c1ccco1)C(=O)N2Cc1ccc(Cl)cc1 (centres unmarked) | 183 to 185 °C | –
COc1ccccc1CN1C(=O)C(O)(c2ccc3c(c2)OCO3)c2ccccc21 (centres unmarked) | 148 to 150 °C | –
O=C(CC1(O)C(=O)N(Cc2ccc(Cl)cc2)c2ccccc21)c1cc2ccccc2o1 (centres unmarked) | 185 °C (dec.) | –
O=C1N(Cc2cccs2)c2ccccc2C1(O)c1ccc2c(c1)OCO2 (centres unmarked) | 141 to 142 °C | –
O=C1N(CCCC(F)(F)F)c2ccccc2C1(O)c1ccc2c(c1)OCO2 (centres unmarked) | 119 to 121 °C | –
O=C(CC1(O)C(=O)N(Cc2ccc(Cl)cc2)c2ccccc21)c1ccc(F)cc1 (centres unmarked) | 156 to 160 °C | –
CCCCCN1C(=O)C(O)(c2ccc3c(c2)OCO3)c2cccc(-c3ccc(F)cc3)c21 (centres unmarked) | 149 to 151 °C | –
O=C1N(Cc2ccc(Cl)cc2)c2ccccc2C1(O)CC1OCCO1 (centres unmarked) | 166 to 169 °C | –
O=C1N(Cc2ccccc2I)c2ccccc2C1(O)c1ccc2c(c1)OCO2 (centres unmarked) | 130 to 132 °C | –
O=C1N(Cc2cccc(C(F)(F)F)c2)c2ccccc2C1(O)c1ccc2c(c1)OCO2 (centres unmarked) | 133 to 135 °C | –
O=C1N(Cc2ccc(C(F)(F)F)o2)c2ccc(F)cc2C1(CO)c1cc2c(cc1O)OCO2 (centres unmarked) | 92 to 95 °C | –
CCCCCN1C(=O)C(c2ccc3c(c2)OCO3)(c2cc3c(cc2O)OCO3)c2ccccc21 (centres unmarked) | 75 to 76 °C | –
COc1ccc(CN2C(=O)C(O)(c3ccc4c(c3)OC(F)(F)O4)c3ccccc32)cc1 (centres unmarked) | 88 to 90 °C | –
O=C1N(Cc2ccc(Cl)cc2)c2ccc(Br)cc2C1(O)c1ccc2c(c1)OCO2 (centres unmarked) | 179 to 180 °C | –
CCCCC(C)N1C(=O)C(O)(c2ccc3c(c2)OCO3)c2ccccc21 (centres unmarked) | 152 to 154 °C | –
CCCCCN1C(=O)C(N)(CC(=O)c2cccs2)c2ccccc21 (centres unmarked) | 167 to 169 °C | –
CCCCCN1C(=O)C(O)(c2ccc3c(c2)OCO3)c2ccc(Cl)cc21 (centres unmarked) | 103 to 105 °C | –
CC(C)CCN1C(=O)C(O)(c2ccc3c(c2)OCO3)c2ccccc21 (centres unmarked) | 129 to 131 °C | –
O=C1N(Cc2ccc(Cl)cc2)c2ccc(F)cc2C1(O)c1ccc2c(c1)OCO2 (centres unmarked) | 145 to 147 °C | –
CCCCCCN1C(=O)C(O)(c2ccc3c(c2)OCO3)c2ccccc21 (centres unmarked) | 88 to 90 °C | –
CCCCCN1C(=O)C(c2ccc3c(c2)OCO3)c2c(Cl)ccc(Cl)c21 (centres unmarked) | 84 to 86 °C | –
CCCCCN1C(=O)C(c2ccc3c(c2)OCO3)c2cc(C)cc(C)c21 (centres unmarked) | 111 to 114 °C | –
